Patent publication US12178791B2, “Haloallylamine sulfone derivative inhibitors of lysyl oxidases and uses thereof” (Syntara Limited, priority 2018, dated 2024)
Structures can show the parent of a compound that is named as a salt.

Key:
Assay type in all cases: biochemical
Bovine LOX = Bovine LOX (Bos taurus (Bovine), UniProt P33072); experiment: LOX inhibition, Amplex Red oxidation assay; settings: 30 min preincubation at 37 °C, putrescine substrate
Source text: Lysyl oxidase (LOX) is an extracellular copper dependent enzyme which oxidizes peptidyl lysine and hydroxylysine residues in collagen and lysine residues in elastin to produce peptidyl alpha-aminoadipic-delta-semialdehydes. […] There are five LOX family members; these are LOX, LOXL1, LOXL2, LOXL3 and LOXL4. LOX and LOXL family members can be acquired as recombinant active proteins from commercial sources, or extracted from animal tissues like bovine aorta, tendons, pig skin; or prepared from cell cultures. The inhibitory effects of the compounds of the present invention were tested against the given LOX-LOXL preparation using a method based on the detection of hydrogen peroxide with an Amplex Red oxidation assay (Zhou et al. A stable nonfluorescent derivative of resorufin for the fluorometric determination of trace hydrogen peroxide: applications in detecting the activity of phagocyte NADPH oxidase and other oxidases. Anal. Biochem. 1997; 253, 162-168). The assay was developed using either 384 or 96 well format. Briefly, in a standard black, clear bottom 384 well plate assay 25 μL of a dilution of any of the isoenzymes and orthologues in 1.2 M urea, 50 mM sodium borate buffer (pH 8.2) were added into each well in the presence of 1 μM mofegiline and 0.5 mM pargyline (to inhibit SSAO and MAO-B and MAO-A, respectively; not necessary if the enzyme is from a recombinant or purified form). […] Twenty five μL of a reaction mixture containing twice the KM concentration of putrescine (Sigma Aldrich, e.g. 20 mM for LOX, or 10 mM for LOXL2 and LOXL3), 120 μM Amplex Red (Sigma Aldrich) and 1.5 U/mL horseradish peroxidase (Sigma Aldrich) prepared in 1.2 M urea, 50 mM sodium borate buffer (pH 8.2) were then added to the corresponding wells. The above volumes were doubled in the case of 96 wells plate. The fluorescence (RFU) was read every 2.5 min for 30 min at […] 37° C., excitation 565 nm and emission 590 (Optima; BMG labtech). The slope of the kinetics for each well was calculated using MARS data analysis software (BMG labtech) and this value was used to deduce the IC50 value (Dotmatics).

LOXL2 = LOXL2 (Homo sapiens (Human), UniProt Q9Y4K0); experiment: LOXL2 inhibition, Amplex Red oxidation assay; settings: 30 min preincubation at 37 °C, putrescine substrate
Source text: Lysyl oxidase (LOX) is an extracellular copper dependent enzyme which oxidizes peptidyl lysine and hydroxylysine residues in collagen and lysine residues in elastin to produce peptidyl alpha-aminoadipic-delta-semialdehydes. […] There are five LOX family members; these are LOX, LOXL1, LOXL2, LOXL3 and LOXL4. LOX and LOXL family members can be acquired as recombinant active proteins from commercial sources, or extracted from animal tissues like bovine aorta, tendons, pig skin; or prepared from cell cultures. The inhibitory effects of the compounds of the present invention were tested against the given LOX-LOXL preparation using a method based on the detection of hydrogen peroxide with an Amplex Red oxidation assay (Zhou et al. A stable nonfluorescent derivative of resorufin for the fluorometric determination of trace hydrogen peroxide: applications in detecting the activity of phagocyte NADPH oxidase and other oxidases. Anal. Biochem. 1997; 253, 162-168). The assay was developed using either 384 or 96 well format. Briefly, in a standard black, clear bottom 384 well plate assay 25 μL of a dilution of any of the isoenzymes and orthologues in 1.2 M urea, 50 mM sodium borate buffer (pH 8.2) were added into each well in the presence of 1 μM mofegiline and 0.5 mM pargyline (to inhibit SSAO and MAO-B and MAO-A, respectively; not necessary if the enzyme is from a recombinant or purified form). Test compounds were dissolved in DMSO and tested in a Concentration Response Curve (CRC) with 11 data points, typically in the micromolar or nanomolar range after incubation with the enzyme for 30 min at 37° C. Twenty five μL of a reaction mixture containing twice the KM concentration of putrescine (Sigma Aldrich, e.g. 20 mM for LOX, or 10 mM for LOXL2 and LOXL3), 120 μM Amplex Red (Sigma Aldrich) and 1.5 U/mL horseradish peroxidase (Sigma Aldrich) prepared in 1.2 M urea, 50 mM sodium borate buffer (pH 8.2) were then added to the corresponding wells. The above volumes were doubled in the case of 96 wells plate. The fluorescence (RFU) was read every 2.5 min for 30 min at […] 37° C., excitation 565 nm and emission 590 (Optima; BMG labtech). The slope of the kinetics for each well was calculated using MARS data analysis software (BMG labtech) and this value was used to deduce the IC50 value (Dotmatics).

[1] = molecular target: Human recombinant SSAO/VAP-1 (Homo sapiens (Human), UniProt Q16853); experiment: Inhibition of human recombinant SSAO/VAP-1; settings: 30 min preincubation at 37 °C, benzylamine 600 μM; read-out: SSAO/VAP-1 Activity IC50
Procedure: Human recombinant SSAO/VAP-1 amine oxidase activity was determined using the coupled colorimetric method as described for monoamine oxidase, copper-containing amine oxidases and related enzymes (Holt A. and Palcic M., A peroxidase-coupled continuous absorbance plate-reader assay for flavin monoamine oxidases, copper-containing amine oxidases and related enzymes. Nat Protoc 2006; 1: 2498-2505). Briefly, a cloned cDNA template corresponding to residues 34-763 of human SSAO/VAP-1, and incorporating a mouse Ig kappa (κ) signal sequence, N-terminal flag epitope tag and tobacco etch virus (TEV) cleavage site, was assembled in a mammalian expression vector (pLO-CMV) by Geneart AG. This vector containing human SSAO/VAP-1 residues was transfected into CHO-Kl glycosylation mutant cell line, Lec 8. A clone stably expressing human SSAO/VAP-1 was isolated and cultured in large scale. Active human SSAO/VAP-1 was purified and recovered using immunoaffinity chromatography. This was used as the source for SSAO/VAP-1 activity. A high-throughput colorimetric assay was developed using either 96 or 384 well format. Briefly, in a standard 96 well plate assay 50 μL of purified human SSAO/VAP-1 (0.25 μg/mL) in 0.1 M sodium phosphate buffer (pH 7.4) was added into each well. Test compounds were dissolved in DMSO and tested in a Concentration Response Curve (CRC) with 4-11 data points, typically in the micromolar or nanomolar range after incubation with human SSAO/VAP-1 for 30 min at 37° C. After 30 min incubation, 50 μL of the reaction mixture containing 600 μM benzylamine (Sigma Aldrich), 120 μM Amplex Red (Sigma Aldrich) and 1.5 U/mL horseradish peroxidase (Sigma Aldrich) prepared in 0.1 M sodium phosphate buffer (pH 7.4) were added to the corresponding well. The fluorescence unit (RFU) was read every 2.5 min for 30 min at 37° C. excitation 565 nm and emission 590 (Optima; BMG labtech). The slope of the kinetics for each well was calculated using MARS data analysis software (BMG labtech) and this value was used to deduce the IC50 value (Dotmatics).

Recombinant human MAO-B = Recombinant human MAO-B (Homo sapiens (Human), UniProt P27338); experiment: Inhibition of human recombinant MAO-B; settings: benzylamine 100 μM
Procedure: The specificity of the compounds of this invention was tested by determining their ability to inhibit MAO-B activities in vitro. Recombinant human MAO-B (0.06 mg/mL; Sigma Aldrich) was used as source of MAO-B enzyme activities. The assay was performed in a similar way as for human SSAO/VAP-1 (Example 28) except, the substrate benzylamine was used at 100 μM.

LOXL1 = LOXL1 (Homo sapiens (Human), UniProt Q08397); experiment: Jump dilution experiment, sustained inhibition of LOXL1; settings: jump dilution after 40 min at 37 °C with 10× or 30× IC50; vs non-inhibited controls;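 also: 30× IC50 used only where needed so inhibitor exceeds enzyme concentration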
Procedure: Jump Dilution experiment: The assay was developed using a 96 well format and the starting enzyme concentration was set 100 times higher than for the inhibition studies. […] After the incubation, the mixture was diluted 50× in assay buffer, followed by a further 2× dilution in Amplex Red-horseradish peroxidase-putrescine reaction mix (same as per the inhibition studies) prior to the fluorescent measurement. Results were expressed in % recovery of the signal after a specified time by comparison with non-inhibited controls.

Sequence of LOXL2 (Q9Y4K0 26-774): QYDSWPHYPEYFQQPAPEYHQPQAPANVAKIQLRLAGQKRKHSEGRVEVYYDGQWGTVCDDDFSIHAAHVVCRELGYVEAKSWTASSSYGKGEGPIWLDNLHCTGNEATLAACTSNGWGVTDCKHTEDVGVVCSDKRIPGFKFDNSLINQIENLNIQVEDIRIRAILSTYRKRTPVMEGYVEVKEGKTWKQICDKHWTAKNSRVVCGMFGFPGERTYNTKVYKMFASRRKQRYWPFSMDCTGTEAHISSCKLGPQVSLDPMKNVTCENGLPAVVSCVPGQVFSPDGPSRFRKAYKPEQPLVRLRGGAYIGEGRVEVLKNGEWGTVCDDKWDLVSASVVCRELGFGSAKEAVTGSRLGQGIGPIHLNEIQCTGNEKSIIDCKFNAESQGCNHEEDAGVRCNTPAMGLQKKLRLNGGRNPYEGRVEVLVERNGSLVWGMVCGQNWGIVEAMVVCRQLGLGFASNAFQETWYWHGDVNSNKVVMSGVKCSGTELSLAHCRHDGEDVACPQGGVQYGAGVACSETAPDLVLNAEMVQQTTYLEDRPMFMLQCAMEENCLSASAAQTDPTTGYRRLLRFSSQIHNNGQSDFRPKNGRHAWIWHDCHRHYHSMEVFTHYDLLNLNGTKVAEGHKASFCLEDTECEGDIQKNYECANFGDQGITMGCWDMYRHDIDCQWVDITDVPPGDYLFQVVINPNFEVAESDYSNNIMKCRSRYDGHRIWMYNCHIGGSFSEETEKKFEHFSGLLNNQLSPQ
Sequence of Recombinant human MAO-B (P27338 whole entry): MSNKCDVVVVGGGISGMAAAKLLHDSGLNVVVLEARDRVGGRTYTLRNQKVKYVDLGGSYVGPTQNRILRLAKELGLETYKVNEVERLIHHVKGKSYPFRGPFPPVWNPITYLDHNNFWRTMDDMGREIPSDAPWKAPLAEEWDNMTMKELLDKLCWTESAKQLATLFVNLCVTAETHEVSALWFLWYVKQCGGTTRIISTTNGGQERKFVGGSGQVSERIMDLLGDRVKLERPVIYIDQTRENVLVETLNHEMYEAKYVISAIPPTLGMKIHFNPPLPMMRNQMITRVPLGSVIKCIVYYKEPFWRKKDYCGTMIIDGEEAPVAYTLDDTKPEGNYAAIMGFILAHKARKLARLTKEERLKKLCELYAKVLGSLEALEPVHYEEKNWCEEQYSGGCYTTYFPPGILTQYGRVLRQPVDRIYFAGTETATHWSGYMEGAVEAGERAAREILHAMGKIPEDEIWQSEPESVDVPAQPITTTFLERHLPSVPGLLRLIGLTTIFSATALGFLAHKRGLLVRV
Sequence of LOXL1 (Q08397 96-574, species assumed): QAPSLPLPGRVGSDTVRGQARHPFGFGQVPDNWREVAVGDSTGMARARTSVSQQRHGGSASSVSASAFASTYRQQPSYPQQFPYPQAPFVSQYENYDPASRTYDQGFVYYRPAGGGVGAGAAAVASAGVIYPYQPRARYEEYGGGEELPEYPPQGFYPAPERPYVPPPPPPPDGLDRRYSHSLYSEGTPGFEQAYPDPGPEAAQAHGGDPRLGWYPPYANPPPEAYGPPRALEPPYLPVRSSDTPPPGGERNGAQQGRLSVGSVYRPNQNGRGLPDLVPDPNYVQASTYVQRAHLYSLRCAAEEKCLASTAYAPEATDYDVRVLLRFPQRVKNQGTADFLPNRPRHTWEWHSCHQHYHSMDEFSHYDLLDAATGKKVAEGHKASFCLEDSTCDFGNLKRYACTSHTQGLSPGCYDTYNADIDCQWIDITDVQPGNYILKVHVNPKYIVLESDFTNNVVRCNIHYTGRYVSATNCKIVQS
Sequence of Human recombinant SSAO/VAP-1 (Q16853 34-763): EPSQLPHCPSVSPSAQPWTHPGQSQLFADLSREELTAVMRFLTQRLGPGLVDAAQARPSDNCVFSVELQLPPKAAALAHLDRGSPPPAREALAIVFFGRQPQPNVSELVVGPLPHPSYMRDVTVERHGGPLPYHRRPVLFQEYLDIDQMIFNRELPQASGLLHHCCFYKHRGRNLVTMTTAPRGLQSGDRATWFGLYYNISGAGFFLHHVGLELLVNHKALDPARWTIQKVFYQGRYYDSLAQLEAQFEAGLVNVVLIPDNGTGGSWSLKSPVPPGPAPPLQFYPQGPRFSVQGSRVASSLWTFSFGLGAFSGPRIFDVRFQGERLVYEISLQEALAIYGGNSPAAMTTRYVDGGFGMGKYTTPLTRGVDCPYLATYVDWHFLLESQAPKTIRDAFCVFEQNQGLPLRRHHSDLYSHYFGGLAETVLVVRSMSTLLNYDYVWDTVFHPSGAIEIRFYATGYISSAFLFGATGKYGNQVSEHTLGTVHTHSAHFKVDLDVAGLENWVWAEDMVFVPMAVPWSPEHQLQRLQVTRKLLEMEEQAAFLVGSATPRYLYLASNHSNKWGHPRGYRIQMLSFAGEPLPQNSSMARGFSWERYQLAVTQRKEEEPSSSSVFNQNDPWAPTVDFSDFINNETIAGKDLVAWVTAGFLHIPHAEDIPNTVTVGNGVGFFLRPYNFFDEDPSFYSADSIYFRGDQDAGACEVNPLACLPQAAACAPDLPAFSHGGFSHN
Sequence of Bovine LOX (P33072 170-418): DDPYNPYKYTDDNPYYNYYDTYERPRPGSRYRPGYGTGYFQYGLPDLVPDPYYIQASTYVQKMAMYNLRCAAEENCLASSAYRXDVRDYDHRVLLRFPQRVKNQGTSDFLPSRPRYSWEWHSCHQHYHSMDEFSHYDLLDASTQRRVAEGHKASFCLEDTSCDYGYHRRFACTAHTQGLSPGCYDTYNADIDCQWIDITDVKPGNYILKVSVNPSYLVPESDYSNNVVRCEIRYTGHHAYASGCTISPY

Row | Compound | IC50 (Bovine LOX) [µM] | IC50 (LOXL2) [µM] | IC50 [1] [µM] | IC50 (Recombinant human MAO-B) [µM] | LOXL1 - Recovery of activity. (%) (LOXL1)
1 | CS(=O)(=O)c1ccc(S(=O)(=O)C/C(F)=C/CN)cc1 [Compound 3, (Z)-3-fluoro-4-((4-(methylsulfonyl)phenyl)sulfonyl)but-2-en-1-amine] | < 10 | < 10 | > 30 | > 30 | 
2 | CC(C)N(C(C)C)S(=O)(=O)c1ccc(NC(=O)c2ccccc2S(=O)(=O)C/C(F)=C/CN)cc1 [Compound 15, (Z)-2-((4-amino-2-fluorobut-2-en-1-yl)sulfonyl)-N-(4-(N,N-diisopropylsulfamoyl)phenyl)benzamide hydrochloride] | < 10 | < 1 | > 30 | > 30 | 26.1
3 | CC(C)NS(=O)(=O)c1ccc(COc2ccccc2S(=O)(=O)C/C(F)=C/CN)cc1 [Compound 14, (Z)-4-((2-((4-amino-2-fluorobut-2-en-1-yl)sulfonyl)phenoxy)methyl)-N-isopropylbenzenesulfonamide hydrochloride] | < 1 | < 1 | > 30 | > 30 | 1.9
4 | CC(C)c1ncccc1S(=O)(=O)C/C(F)=C/CN [Compound 45, (Z)-3-fluoro-4-(2-isopropylpyridin-3-ylsulfonyl)but-2-en-1-amine dihydrochloride] | < 10 | < 1 | > 30 |  | 6.6
5 | CC(C)N(C(C)C)S(=O)(=O)c1ccc(COc2ccccc2S(=O)(=O)C/C(F)=C/CN)cc1 [Compound 11, (Z)-4-((2-((4-amino-2-fluorobut-2-en-1-yl)sulfonyl)phenoxy)methyl)-N,N-diisopropylbenzenesulfonamide hydrochloride] | < 1 | < 1 | > 30 | > 30 | 10.2
6 | Cc1ccc(S(=O)(=O)C/C(F)=C/CN)cn1 [Compound 46, (Z)-3-fluoro-4-(6-methylpyridin-3-ylsulfonyl)but-2-en-1-amine dihydrochloride] | < 10 | < 1 |  |  | 1.0
7 | NC/C=C(\F)CS(=O)(=O)c1ccncc1 [Compound 29, (Z)-3-fluoro-4-(pyridin-4-ylsulfonyl)but-2-en-1-amine dihydrochloride] | < 10 | < 1 |  |  | 8.6
8 | NC/C=C(\F)CS(=O)(=O)c1ccccc1OCc1ccccc1 [Compound 7, (Z)-4-((2-(benzyloxy)phenyl)sulfonyl)-3-fluorobut-2-en-1-amine hydrochloride] | < 10 | < 1 | > 30 | > 30 | 3.0
9 | NC/C=C(\F)CS(=O)(=O)c1ccccc1OCc1ccc(S(N)(=O)=O)cc1 [Compound 8, (Z)-4-((2-((4-amino-2-fluorobut-2-en-1-yl)sulfonyl)phenoxy)methyl)benzenesulfonamide hydrochloride] | < 1 | < 1 | > 30 | > 30 | 35.1
10 | NC/C=C(\F)CS(=O)(=O)c1cccc2cc(F)cnc12 [Compound 51, (Z)-3-fluoro-4-((3-fluoroquinolin-8-yl)sulfonyl)but-2-en-1-amine dihydrochloride] | < 10 | < 1 | > 10 | > 30 | 
11 | NC/C=C(\F)CS(=O)(=O)c1cccc(F)c1 [Compound 38, (Z)-3-fluoro-4-(3-fluorophenylsulfonyl)but-2-en-1-amine hydrochloride] | < 10 | < 1 |  |  | 1.6
12 | NC/C=C(\F)CS(=O)(=O)c1ccc2ccccc2n1 [Compound 32, (Z)-3-fluoro-4-(quinolin-2-ylsulfonyl)but-2-en-1-amine dihydrochloride] | < 10 | < 1 |  | > 30 | 
13 | NC/C=C(\F)CS(=O)(=O)c1cc(Cl)cc(Cl)c1 [Compound 28, (Z)-4-(3,5-dichlorophenylsulfonyl)-3-fluorobut-2-en-1-amine hydrochloride] | < 10 | < 1 | > 30 |  | 
14 | NC/C=C(\F)CS(=O)(=O)c1ccccn1 [Compound 30, (Z)-3-fluoro-4-(pyridin-2-ylsulfonyl)but-2-en-1-amine dihydrochloride] | < 10 | < 1 |  |  | 1.9
15 | NC/C=C(\F)CS(=O)(=O)c1cc(C(F)(F)F)cc(C(F)(F)F)c1 [Compound 2, (Z)-4-((3,5-bis(trifluoromethyl)phenyl)sulfonyl)-3-fluorobut-2-en-1-amine hydrochloride] | < 10 | < 10 | > 30 | > 30 | 
